This is an account of results in PMC10305181, “A VEGFB-Based Peptidomimetic Inhibits VEGFR2-Mediated PI3K/Akt/mTOR and PLCγ/ERK Signaling and Elicits Apoptotic, Antiangiogenic, and Antitumor Activities” (Pharmaceuticals, 2023).

Bridge positions count the residues as written; N and C are the ends. Peptide text beside a SMILES is read from it.

For one data set, the system named is HUVECs. In words: TUNEL assay, HUVECs. Format: cell-based, human. Conditions: 0.40 μM, n = 3, p < 0.0001. From the text: Periodic boundary conditions were used, and bonds were restrained by applying the LINCS algorithm to their equilibrium position. Initial structures were solvated with three-point model water molecules in a cubic box of 1.0 nm to fully cover the protein system in water, following periodic boundary conditions (PBC). The produced system for each peptide was neutralized through the “genion tool” plugin of the GROMACS package by adding ions Na+ and Cl−. Then, the system was minimized for 50000 iterations using the steepest descent (SD) algorithm and using velocity rescaling (modiﬁed Berendsen) temperature coupling and Parrinello-Rahman pressure coupling methods, simulated under an isothermal-isobaric ensemble (NPT) for 5 ns at a constant temperature, the pressure of 300 K, and 1 atm, respectively. The NVT and NPT equilibration was carried out for 50000 steps. The minimization and equilibration procedures were executed, and finally, one system of the peptide was subjected to a 200 ns production run of MD simulations utilizing 2 fs as the time step and coordinates of all atoms were recorded in the form of .trr GROMACS trajectory ﬁle every 10 ps.
2 × 10^3 HUVE or 4T1 cells were cultured in DMEM and RPMI-1640 media, respectively, supplemented with 10% (v/v) FBS overnight. Then, the cells were incubated in the media supplemented with 5% FBS, with PBS or C-VGB3 (0.40 μM). […]

Data set [1] in a line: body weight / tolerability of treated 4T1 tumor-bearing mice. Format: in vivo. Particulars: 0.2 mg·kg^−1 i.v. once every 2 days. As for the experimental part: (§1) Figure 2 Loop formation is important for the antitumor activity of VGB3. (A) To investigate the efficacy of VGB3 peptides in vivo 13 days after transplantation of a 4T1 murine MCT into female BALB/c mice (the tumor volume ~150 mm^3), the treatment groups received 0.2 mg·kg^−1 (once every 2 days, i.v.) of either the C-VGB3 or L-VGB3 and the control group received PBS for 20 days. Error bars denote ± SEM. n = 6; **** p < 0.0001, ns = not significant; two-way ANOVA. (B) Investigation of C-VGB3 and L-VGB3 effects on mice weight. […] (C,D) Immunohistochemical (IHC) analyses of CD31 and Ki67 for the C-VGB3-, L-VGB3- and PBS-treated tumors. For IHC staining, the sections of tumor tissues were incubated with the primary mouse monoclonal antibodies for CD31 (1:2000 (v/v)) and Ki67 (5 µg·mL^−1). […] Photographs were taken at 40× magnification. Error bars denote ± SEM. n = 3; * 0.02 ≤ p ≤ 0.04, ns = not significant; one-way ANOVA.
The antitumor efficacy of the peptides was investigated as described previously. Thirteen days after implanting, tumor (~150 mm^3)-bearing mice were grouped randomly into control and treated animals (6/group). From day 13 to day 33, the treatment group received cyclic or linear VGB3 (0.2 mg·kg^−1), whereas the control group received an equal volume of PBS (i.v., once every two days). The volume of tumors was calculated as 0.52 × length × width^2. In addition, changes in the weight of animals were recorded every 2 days.

The test system of data set [2] is CD31-stained microvessels. The data set can be described thus: CD31 immunohistochemistry of 4T1 tumors (microvessel density). Format: in vivo, murine. Particulars: 0.2 mg·kg^−1 i.v.; day 33; n = 3; p = 0.02. As for the experimental part:
as §1
For immunohistochemistry staining, deparaffinized tumor sections were incubated overnight at 4 °C with mouse monoclonal primary anti-Ki67 (5 µg·mL^−1) or anti-CD31 (1:2000 (v/v)). The antigens were detected using 3,3-diaminobenzidine. All images were captured and analyzed with an Olympus BX51 microscope (Olympus America, New York, NY, USA).

As for `CC(C)C[C@@H]1NC(=O)CNC(=O)[C@H](CC(=O)O)NC(=O)[C@H](CC(=O)O)NC(=O)[C@@H]2CCCN2C(=O)[C@@H]2CCCN2C(=O)[C@H](CCCNC(=N)N)NC(=O)[C@@H](NC(=O)[C@@H](N)CCC(=O)O)CSSC[C@@H](C(=O)O)NC1=O` [C-VGB3] (H-ECRPPDDGLC-OH; disulfide 2-10), in the data set with HUVECs, the TUNEL fluorescent labeling result is given as “fluorescent-labeled more than control cells”. Further, the “toxicity at this dosage (weight gain)” value in data set [1] (three weeks) is on record as “not toxic”. Moreover, the “mice weight vs control groups” value in data set [1] (two-way ANOVA) was “no significant differences”. The “reduction in vessel density (CD31)” value in data set [2] is 84%.
